# Measured values reported in patent publication US10155971B2, “Rapid antibiotic susceptibility testing system based on bacterial immobilization using gelling agent, antibiotic diffusion and tracking of single bacterial cells” (SNU R & DB FOUNDATION, priority 2012, dated 2018).
# Experiments:
# [1] = test system: Escherichia coli ATCC 25922; assay: Rapid antibiotic susceptibility test (RAST) in microfluidic agarose channel (MAC), MIC by single-cell time-lapse imaging; assay type: cell-based; conditions: E. coli ATCC 25922, RAST method in MAC; for MIC: Escherichia coli, ATCC25922
# Method: Radial microfluidic channels with six branches were formed using soft-lithography. First, SU8 mold (2015 SU8, Microchem) was fabricated by employing photolithography. Polydimethylsiloxane (PDMS, Dow Corning) was mixed with a curing agent (10:1, w/w) and poured into the SU8. After baking at 150° C. for 10 min, the PDMS was peeled off and attached to the PDMS-coated slide glass by O2 plasma treatment to obtain a radial microfluidic channel chip capable of testing antibiotics having five concentrations and a control with no antibiotic. There were six main channels that carried one side-branched channel each. […] A mixture of agarose and bacteria was allowed to flow in the main channels, and the bioactive agents were allowed to flow in the respective side-branched channels. In the middle of each main channel, there were anchors in the form of micro-sized posts for forming an interface between the agarose and each of the bioactive agents. The posts blocked the agarose from flowing into the side-branched channel. The sizes of the posts and the pitches between the posts were determined by mathematical calculations. For appropriate hydrophobicity to occur in the channel, the channel was prepared one day before experiment to increase the surface tension after O2 plasma treatment. Agarose is solidified at a temperature lower than 36° C. The cultured bacteria were mixed with 2% agarose (1:3, v/v) at 45° C. and immediately injected into the microfluidic channels. The agarose-bacteria mixture was solidified at 25° C. for 1 min. The obtained microfluidic agarose channel (MAC) chip was placed on a hot plate and incubated at 37° C. To provide nutrients, liquid CAMHB medium was supplied through the side-branched channels. The growth of the bacteria was monitored using a microscope. Bacterial growth was not inhibited and could be clearly monitored in the MAC system. Bacterial cell images were taken with a CCD camera; the images were then processed to determine the MIC values of the antibiotics. The image data were transformed into digital data using an image processing program, which is coded in Matlab. For the calculations, RGB images were transformed into grey formatted images. The background data were eliminated to obtain sharp data without noise. Then, the contrast was enhanced to change the processed images into binary format images. […] The Matlab program calculated the areas that were occupied by each bacterium. A longer incubation time allowed each bacterium to grow and occupy more area. The occupied areas were measured using the image processing program. […] Bacterial growth was monitored by using a microscope (40×) and a CCD camera. Images of bacterial growth were taken every hour and were analyzed by using the image processing program. […]
# [2] = test system: Pseudomonas aeruginosa ATCC 27853; assay: as above; assay type: cell-based; conditions: P. aeruginosa ATCC 27853, RAST method in MAC; for MIC: Pseudomonas aeruginosa, ATCC27853
# Method: (§1) Radial microfluidic channels with six branches were formed using soft-lithography. First, SU8 mold (2015 SU8, Microchem) was fabricated by employing photolithography. Polydimethylsiloxane (PDMS, Dow Corning) was mixed with a curing agent (10:1, w/w) and poured into the SU8. After baking at 150° C. for 10 min, the PDMS was peeled off and attached to the PDMS-coated slide glass by O2 plasma treatment to obtain a radial microfluidic channel chip capable of testing antibiotics having five concentrations and a control with no antibiotic. There were six main channels that carried one side-branched channel each. […] A mixture of agarose and bacteria was allowed to flow in the main channels, and the bioactive agents were allowed to flow in the respective side-branched channels. In the middle of each main channel, there were anchors in the form of micro-sized posts for forming an interface between the agarose and each of the bioactive agents. The posts blocked the agarose from flowing into the side-branched channel. The sizes of the posts and the pitches between the posts were determined by mathematical calculations. For appropriate hydrophobicity to occur in the channel, the channel was prepared one day before experiment to increase the surface tension after O2 plasma treatment. Agarose is solidified at a temperature lower than 36° C. The cultured bacteria were mixed with 2% agarose (1:3, v/v) at 45° C. and immediately injected into the microfluidic channels. The agarose-bacteria mixture was solidified at 25° C. for 1 min. The obtained microfluidic agarose channel (MAC) chip was placed on a hot plate and incubated at 37° C. To provide nutrients, liquid CAMHB medium was supplied through the side-branched channels. The growth of the bacteria was monitored using a microscope. Bacterial growth was not inhibited and could be clearly monitored in the MAC system. Bacterial cell images were taken with a CCD camera; the images were then processed to determine the MIC values of the antibiotics. The image data were transformed into digital data using an image processing program, which is coded in Matlab. For the calculations, RGB images were transformed into grey formatted images. The background data were eliminated to obtain sharp data without noise. Then, the contrast was enhanced to change the processed images into binary format images. […] The Matlab program calculated the areas that were occupied by each bacterium. A longer incubation time allowed each bacterium to grow and occupy more area. The occupied areas were measured using the image processing program. 200 μl of Mueller-Hinton agar including 5×10^8 cells/ml bacterial cells and 600 μl of 2% liquid agarose at 45° C. was mixed thoroughly by a vortex generator (vortex Genie 2). The agarose-bacteria mixture was placed in the main channels of the microfluidic channel system using a syringe pump (KdScientific) at stable flow rate (2 ml/hr) to prevent bursting into the side-branched channels. After the liquid agarose was solidified at room temperature to immobilize the bacteria in the main channels, the MHA medium containing the antibiotic was injected into the side-branched channels using the syringe pump at a rate of 10 μl/hr to diffuse into the agarose-bacteria mixture. Bacterial growth was monitored by using a microscope (40×) and a CCD camera. Images of bacterial growth were taken every hour and were analyzed by using the image processing program. […] The obtained MIC values were verified by the conventional method (microdilution method) and compared with the MIC data of the CLSI. […] The images of the left group are RGB images before processing, and the images of the right group are images after processing for clear observation. After image processing, the bacteria that occupied the area were measured and plotted on the graph for different concentrations of gentamicin according to the incubation time. […] The MIC values were in the MIC ranges of the CLSI data.
# [3] = test system: Staphylococcus aureus ATCC 29213; assay: as above; assay type: cell-based; conditions: S. aureus ATCC 29213, RAST method in MAC; for MIC: Staphylococcus aureus, ATCC29213
# Method: as §1
# [4] = test system: E. coli ATCC 25922; conditions: CLSI range; cited from earlier work
# [5] = test system: S. aureus ATCC 29213; conditions: CLSI range; cited from earlier work
# [6] = test system: P. aeruginosa ATCC 27853; conditions: CLSI range; cited from earlier work
# [7] = test system: P. aeruginosa ATCC 27853 biofilm; assay: Antibiotic susceptibility of biofilms in the MAC system; assay type: cell-based, Pseudomonas aeruginosa; conditions: biofilm formation by 4 hr aging in the MAC system
molecule,measurement,setting,value
CN(C)[C@@H]1C(O)=C(C(N)=O)C(=O)[C@@]2(O)C(O)=C3C(=O)c4c(O)cccc4[C@@](C)(O)[C@H]3C[C@@H]12 [Tetracycline],MIC,[1],1 µg/mL
same,MIC,[2],32 µg/mL
same,MIC,[3],0.5 µg/mL
gentamicin [Geninmycin],"MIC, RAST",[1],1 µg/mL
same,"MIC, RAST",[2],2 µg/mL
same,"MIC, RAST",[3],1 µg/mL
same,"MIC, CLSI",[4],0.25 to 1 µg/mL
same,"MIC, CLSI",[5],0.12 to 1 µg/mL
same,"MIC, CLSI",[6],0.5 to 2 µg/mL
NCC[C@H](O)C(=O)N[C@@H]1C[C@H](N)[C@@H](O[C@H]2O[C@H](CN)[C@@H](O)[C@H](O)[C@H]2O)[C@H](O)[C@H]1O[C@H]1O[C@H](CO)[C@@H](O)[C@H](N)[C@H]1O [Amikacin],MIC,[1],4 µg/mL
same,MIC,[2],4 µg/mL
same,MIC,[3],4 µg/mL
same,"MIC, CLSI",[4],0.5 to 4 µg/mL
same,"MIC, CLSI",[5],1 to 4 µg/mL
same,"MIC, CLSI",[6],1 to 4 µg/mL
CCn1cc(C(=O)O)c(=O)c2cc(F)c(N3CCNCC3)cc21 [Norfloxacin],MIC,[1],0.03 µg/mL
same,MIC,[2],2 µg/mL
same,MIC,[3],0.5 µg/mL
same,MIC value after biofilm formation,[7],32 µg/mL
same,"MIC, CLSI",[4],0.03 to 0.12 µg/mL
same,"MIC, CLSI",[5],0.5 to 2 µg/mL
same,"MIC, CLSI",[6],1 to 4 µg/mL
